Test [1] has as its system tubulin. The test is described as follows: HPLC based Chemical Array Assay: protein-bound compounds separated from free compounds, UV and mass spectrum of protein fraction. The settings on record: 10 compound mixture 0.5 uM each, tubulin 0, 5 and 20 uM, GFF II column. The format is binding. Here is the method: (§1) Drug-like chemical compounds representing a collection of drug-like chemical scaffolds (Sigma-Aldrich, ICN, Calbiochem) were weighed and mixed to a final concentration of 20 uM each in 50 mM ammonium acetate pH 7, 10% methanol. 1 uM to 20 uM tubulin or P38 MAP kinase (Sigma) were dispensed into HPLC low volume sample cuvettes (Waters) and mixed with 0.5 uM to 20 uM compounds.
(§2) The compounds were eluted using an acetonitrile gradient past a UV detector and into a TOF mass spectrometer (Micromass LCT). […] In other mass spectrometry instruments, fragmentation can be achieved in a collision cell. The fragmentation pattern which is characteristic for each compound consists of the larger parent peak and other peaks representing fragments of the chemical compound or their isotopes. […] Alternatively, one or more characteristic isotope(s) of the parent peak representing the molecular weight of the compound was compared with the standard to identify the compound that bound the protein target. In another alternative analysis, the parent peak representing the molecular weight of the compound was itself compared with the standard to identify the compound. Sometimes, the combination of these methods was also used to identify the compound.

Test [2] addresses T1, P38 MAP kinase (Homo sapiens, UniProt Q16539).
T1 construct: purchased Sigma
Described as above. The format is binding. The settings on record: for identity by mass spectrum of the compound extracted from the mixture and released from the protein: 5 uM P38 MAP kinase + 5 uM mixture of Quinine and 86002, Diol column. The method, then: as §1, §2

The target in test [3] is T1, P38 MAP kinase. The settings on record: stated as a known property of the ligand; cited from earlier work.

T1 sequence (Q16539 whole entry): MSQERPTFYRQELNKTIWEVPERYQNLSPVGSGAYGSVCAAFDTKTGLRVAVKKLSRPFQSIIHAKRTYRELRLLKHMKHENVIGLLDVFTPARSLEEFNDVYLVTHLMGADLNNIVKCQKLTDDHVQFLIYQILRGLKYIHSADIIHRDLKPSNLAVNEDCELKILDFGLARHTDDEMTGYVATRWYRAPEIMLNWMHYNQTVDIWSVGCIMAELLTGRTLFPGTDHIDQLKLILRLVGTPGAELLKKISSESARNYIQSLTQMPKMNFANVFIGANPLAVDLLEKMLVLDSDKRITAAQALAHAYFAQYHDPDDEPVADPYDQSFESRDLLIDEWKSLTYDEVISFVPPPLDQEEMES

As for `Fc1ccc(-c2nc3n(c2-c2ccncc2)CCS3)cc1` [SKB86002], the “reduction of the compound's UV peak (unbound compound) with increasing tubulin” value in test [1] is on record as “negligible reduction”. Further, in test [2] (5 uM P38 MAP kinase + 5 uM compound alone, Diol column), the “mass spectrum of the collected protein fraction compared with the standard” value is recorded as “corresponded to the 86002 standard”. The “identity by mass spectrum of the compound extracted from the mixture and released from the protein” value in test [2] is reported as “identified as 86002”. Besides, the “reduction of the compound's UV peak (unbound compound) with increasing P38” value in test [2] (2-compound mixture 5 uM each, P38 0, 2.5, 5 and 10 uM, Diol column) is on record as “concentration dependant reduction”; in test [2] (10 compound mixture 0.5 uM each, P38 0, 3.5 and 5 uM, GFF II column), “concentration dependent reduction”. Further, the “level of the compound's characteristic peaks in the mass spectrum of the protein fraction” value in test [2] (10 compound mixture 0.5 uM each, GFF II column) was “at a level far higher than other peaks”. Further, in test [2] (100 compound mixture 20 uM each, P38 2 uM, GFF II column), the “level of the compound's characteristic peak in the mass spectrum of the protein fraction” value is “at a level far higher than other peaks”. Besides, the “affinity for the P38 MAP kinase protein target” value in test [3] is given as “micromolar affinity”.
With `C=C[C@H]1CN2CC[C@H]1C[C@H]2[C@H](O)c1ccnc2ccc(OC)cc12.Cl` [quinine, quinine monohydrochloride], in test [2], the “identity by mass spectrum of the compound extracted from the mixture and released from the protein” value is reported as “not quinine”.

The values are drawn from US20090221436A1, “PROCESS FOR DETERMINING TARGET FUNCTION AND IDENTIFYING DRUG LEADS” (priority 2000, published 2009).
